Test results published in patent publication US8686023B2, “Salts of sunitinib” (Lek Pharmaceuticals D.D., priority 2008, dated 2014).

Solubility of sunitinib salts in water at 25° C.: 2000 µg/mL
Substance: sunitinib L-malate
